Experimental data published in the NIST ThermoML archive (doi:10.1016/j.jct.2018.09.027).

Assay: molar heat capacity at constant pressure
Conditions: 100 kPa, Crystal, DSC

O=C(O)c1cc(O)c(O)c(O)c1 [3,4,5-trihydroxybenzoic acid]
Conditions | molar heat capacity at constant pressure [J/K/mol]
263.15 K | 178.8
264.15 K | 179.31
265.15 K | 179.82
266.15 K | 180.5
267.15 K | 181.18
268.15 K | 181.86
269.15 K | 182.54
270.15 K | 183.05
271.15 K | 183.73
272.15 K | 184.41
273.15 K | 184.92
274.15 K | 185.77
275.15 K | 185.6
276.15 K | 186.96
277.15 K | 187.3
278.15 K | 188.15
279.15 K | 188.49
280.15 K | 189
281.15 K | 189.34
282.15 K | 189.85
283.15 K | 190.36
284.15 K | 191.21
285.15 K | 191.55
286.15 K | 192.24
287.15 K | 193.09
288.15 K | 193.6
289.15 K | 194.28
290.15 K | 194.79
291.15 K | 195.64
292.15 K | 196.32
293.15 K | 197
294.15 K | 197.51
295.15 K | 198.19
296.15 K | 198.7
297.15 K | 199.38
298.15 K | 199.55
299.15 K | 200.06
300.15 K | 200.57
301.15 K | 201.25
302.15 K | 201.76
303.15 K | 202.44
304.15 K | 203.12
305.15 K | 203.8
306.15 K | 204.31
307.15 K | 204.65
308.15 K | 205.33
309.15 K | 206.18
310.15 K | 206.7
311.15 K | 207.04
312.15 K | 207.38
313.15 K | 208.23
314.15 K | 208.91
315.15 K | 209.08
316.15 K | 209.76
317.15 K | 210.61
318.15 K | 211.12
319.15 K | 211.46
320.15 K | 211.8
321.15 K | 212.14
322.15 K | 212.99
323.15 K | 211.97
324.15 K | 212.22
325.15 K | 212.9
326.15 K | 213.59
327.15 K | 214.27
328.15 K | 214.61
329.15 K | 215.09
330.15 K | 215.6
331.15 K | 216.11
332.15 K | 216.39
333.15 K | 216.9
334.15 K | 217.47
335.15 K | 217.92
336.15 K | 217.16
337.15 K | 217.71
338.15 K | 218.35
339.15 K | 218.99
340.15 K | 219.58
341.15 K | 220.09
342.15 K | 220.69
343.15 K | 221.58
344.15 K | 220.47
345.15 K | 220.64
346.15 K | 221.55
347.15 K | 222.29
348.15 K | 222.74
349.15 K | 223.31
350.15 K | 223.76
351.15 K | 224.44
352.15 K | 225.58
353.15 K | 224.69
354.15 K | 225.11
355.15 K | 225.75
356.15 K | 226.47
357.15 K | 226.9
358.15 K | 227.28
359.15 K | 227.92
360.15 K | 228.68
361.15 K | 229.15
362.15 K | 229.7
363.15 K | 229.83
364.15 K | 230.21
365.15 K | 230.81
366.15 K | 231.19
367.15 K | 233.29
368.15 K | 233.91
369.15 K | 234.54
370.15 K | 234.94
371.15 K | 235.6
372.15 K | 236.24
373.15 K | 236.91
374.15 K | 237.55
375.15 K | 238.16
376.15 K | 238.86
377.15 K | 239.45
378.15 K | 240.16
379.15 K | 240.81
380.15 K | 241.44
381.15 K | 242.11
382.15 K | 242.78
383.15 K | 243.42
384.15 K | 244.06
385.15 K | 244.7
386.15 K | 245.37
387.15 K | 246.02
388.15 K | 246.65
389.15 K | 247.32
390.15 K | 248.01
391.15 K | 248.58
392.15 K | 249.14
393.15 K | 249.71
394.15 K | 250.27
395.15 K | 250.84
396.15 K | 251.4
397.15 K | 251.97
398.15 K | 252.44
399.15 K | 253.11
400.15 K | 253.68
401.15 K | 254.24
402.15 K | 254.81
403.15 K | 255.1
404.15 K | 255.93
405.15 K | 256.5
406.15 K | 257.08
407.15 K | 257.65
408.15 K | 258.22
409.15 K | 258.78
410.15 K | 259.34
411.15 K | 259.92
412.15 K | 260.74
413.15 K | 261.25
414.15 K | 261.59
415.15 K | 261.81
416.15 K | 262.27
417.15 K | 262.78
418.15 K | 263.53
419.15 K | 264.31
420.15 K | 265.03
421.15 K | 266.54
422.15 K | 266.57
423.15 K | 267.3
424.15 K | 268.08
425.15 K | 268.84
426.15 K | 269.59
427.15 K | 270.33
428.15 K | 271.11
429.15 K | 271.85
430.15 K | 272.62
431.15 K | 273.38
432.15 K | 274.32
433.15 K | 274.91
434.15 K | 275.59
435.15 K | 275.85
436.15 K | 276.19
437.15 K | 276.7
438.15 K | 277.38
439.15 K | 277.72
440.15 K | 278.23
441.15 K | 278.83
442.15 K | 279.51
443.15 K | 280.61
444.15 K | 280.87
445.15 K | 281.12
446.15 K | 281.63
447.15 K | 282.23
448.15 K | 283.16
449.15 K | 283.84
450.15 K | 284.18
451.15 K | 285.04
452.15 K | 286.14
453.15 K | 286.82
454.15 K | 287.67
455.15 K | 288.44
456.15 K | 289.03
457.15 K | 289.8
458.15 K | 290.56
459.15 K | 291.24
460.15 K | 292.18
461.15 K | 292.86
462.15 K | 293.2
463.15 K | 293.8
464.15 K | 294.99
465.15 K | 295.67
466.15 K | 296.35
467.15 K | 297.03
468.15 K | 297.96
469.15 K | 298.9
470.15 K | 300.18
471.15 K | 301.03
